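Growth conditions: 96-well plates. Treatment: test compound, 48 hours, 5 concentrations. Analysis: linear interpolation between bracketing concentrations; unreached endpoints set to highest concentration. Abbreviation: GI50, concentration required for 50% inhibition of growth. TGI: concentration producing complete growth inhibition.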 Where a SMILES comes first, the peptide text is derived from it. [ ]: non-standard residue; d: D form. Phe(ol) = N[C@H](CO)Cc1ccccc1; dIva = CC[C@@](C)(N)C(=O)O; Aib = CC(C)(N)C(=O)O

The test system of this experiment is MDA-MB-468 breast. Description: growth of human tumour cells (NCI), 48 h.
Take `C#C[C@@]1(O)[C@@H](CO)O[C@@H](n2cc(Br)c3c(Cl)ccnc32)[C@@H]1O`: the GI50 was 0.836 µM and the TGI was greater than 31.6 µM.
The matching figures for `CN(C)c1ccc(/C=C(\C#N)c2cc3ccccc3[nH]2)cc1`: 0.373 µM and 4.2 µM.
With `CCN(CC)C1Oc2cc3c(cc2C(c2cc(OC)c(O)c(OC)c2)C1C)OCO3` (configuration not stated), the GI50 is 11.6 µM and the TGI amounted to 70.7 µM.
The matching figures for `COc1ccc(Cn2cc(COc3cc(/C=C/C(=O)c4cc(OC)c(OC)c(OC)c4)ccc3OC)nn2)cc1`: 2.05 µM and 7 µM.
For `C[C@@H](Nc1cc(F)cc(F)c1)c1cc(C(=O)N(C)C)cc2c(=O)cc(N3CCOCC3)oc12`, the GI50 is 0.692 µM and the TGI amounted to 13.1 µM.
The matching figures for `CCOc1cc(-c2nncn2C)ccc1Nc1ncc2cc(C)nc(NCC(C)(C)C)c2n1`: greater than 20.2 µM and greater than 100 µM.
Taken in the same sequence, the figures for `O=C1/C(=C\c2ccc(F)cc2)CN(C(=O)c2ccccc2F)C/C1=C\c1ccc(F)cc1` were 1.51 µM and 3.4 µM.
Taken in the same sequence, the figures for `COC(=O)[C@H](Cc1cn(C)cn1)NC(=O)[C@H](CC(=O)OCc1ccccc1)NC(=O)Nc1cc(C(F)(F)F)cc(C(F)(F)F)c1` were 2.1 µM and 6.55 µM.
On to `NC(=O)c1c(NC(=O)c2cccs2)sc2c1CCC(=O)C2`, for which the GI50 is 2.58 µM and the TGI came to 8.77 µM.
Taken in the same sequence, the figures for `c1ccc(-c2[nH]ncc2-c2ccnc(-c3ccc(OCCN4CCOCC4)cc3)c2)nc1` were greater than 25 µM and greater than 25 µM.
For the compound `CCN1CCN(c2nc(C)cc(NCc3cc(Nc4ccnc5cc(Cl)ccc45)ccc3F)n2)CC1`, the GI50 was 1.55 µM and the TGI amounted to 3.51 µM.
Taken in the same sequence, the figures for `O=C(O)CCC(c1ccccc1)(c1ccccc1)c1ccccc1` were 57.9 µM and greater than 100 µM.
Taken in the same sequence, the figures for `CCc1nc(C)cn1C(=O)OCc1nc2nc(Cl)nc(N3CCOCC3)c2[nH]1` were 0.925 µM and 2.46 µM.
The matching figures for `C/C=C/c1cc2c(cc1O)CC[C@@H]1[C@@H]2CC[C@]2(C)[C@@H](O)CC[C@@H]12`: 2.99 µM and 17.1 µM.
For the compound `Brc1ccccc2cc(-c3ccccc3)nc1-2`, the GI50 is 4.7 µM and the TGI was greater than 56.6 µM.
The matching figures for `O=C(Nc1ccncc1)C(=O)c1cn(S(=O)(=O)c2cccc(Cl)c2)c2ccccc12`: 0.763 µM and 45.3 µM.
The matching figures for `CC[C@@H](C)/C=C(C)/C=C/C(=O)c1c(O)c(-c2ccc(OC(=O)[C@@]34CC[C@@](C)(C(=O)O3)C4(C)C)cc2)cn(O)c1=O`: 1.32 µM and 10.8 µM.
As for `O=C(Nc1nc(-c2ccc(Cl)cc2)cs1)c1cc(O)c(O)c(O)c1`, the GI50 is 213 µM and the TGI stood at 2290 µM.
Taken in the same sequence, the figures for `COC(=O)[C@]12CC[C@@H](C)[C@H](C)[C@@H]1C1=CC[C@@H]3[C@@]4(C)C(C=O)=C[C@@](C)(CO)[C@@H]4[C@H](O)C[C@@]3(C)[C@]1(C)CC2` were 4.36 µM and 18.9 µM.
Taken in the same sequence, the figures for `COc1cc(-c2nn(-c3ccc(NC(=O)Nc4cc(C(F)(F)F)cc(C(F)(F)F)c4)cc3)cc2-c2ccncc2)ccc1Cl` were 1.45 µM and 3.35 µM.
The matching figures for `Oc1ccc2c(=S)cc(-c3ccc(Br)cc3)oc2c1O`: 2.08 µM and 6.5 µM.
For `COc1ccc2c(C3=C(c4cn(C)c5ccccc45)C(=O)NC3=O)coc2c1`, the GI50 is 0.278 µM and the TGI was determined as 3.48 µM.
Take `CN1CCC2(CC1)N=C(SCC(=O)Nc1cnc3ccccc3c1)C(c1ccc(Br)cc1)=N2`: the GI50 is 1.76 µM and the TGI amounted to 3.5 µM.
Taken in the same sequence, the figures for `CC12OC(CC(O)C1O)n1c3ccccc3c3c4c(c5c6ccccc6n2c5c31)C(=O)N(CCN1CCOCC1)C4=O` (configuration not stated) were 1.17 µM and 3.19 µM.
The matching figures for `CCCCC(=O)N(c1ccc(Nc2c3ccccc3nc3cc([N+](=O)[O-])ccc23)cc1)S(C)(=O)=O`: 0.433 µM and 5.7 µM.
Regarding `O=C(Oc1ccccc1)N(c1ccccc1)c1ccccc1`, the GI50 was 24 µM and the TGI is 87.7 µM.
The matching figures for `CC[C@@](C)(NC(=O)C(C)(C)NC(=O)[C@@H](NC(=O)[C@@H]1CCCN1C(=O)C(C)(C)NC(=O)[C@H](CC(C)C)NC(=O)CNC(=O)C(C)(C)NC(=O)[C@@H](NC(=O)C(C)(C)NC(=O)[C@H](CCC(N)=O)NC(=O)[C@H](C)NC(=O)C(C)(C)NC(=O)[C@H](C)NC(=O)C(C)(C)NC(=O)[C@@H]1CCCN1C(=O)C(C)(C)NC(C)=O)C(C)C)C(C)C)C(=O)N[C@@H](CCC(N)=O)C(=O)N[C@@H](CCC(N)=O)C(=O)N[C@H](CO)Cc1ccccc1` (Ac-[Aib]P[Aib]A[Aib]AQ[Aib]V[Aib]GL[Aib]PV[Aib][dIva]QQ[Phe(ol)]): 0.867 µM and 3.67 µM.
Taken in the same sequence, the figures for `C=C1c2nc3ccccc3n2C=C(c2cccc(Cl)c2)N1Cc1ccc(OC)cc1` were 0.784 µM and 17.2 µM.
Taken in the same sequence, the figures for `NCCCNc1nc2ccccc2c2c(=O)c3cc(F)ccc3sc12` were 1.2 µM and 2.59 µM.
As for `Cc1sc(C(=O)c2cncnc2N[C@@H]2C[C@H](COS(N)(=O)=O)[C@@H](O)C2)cc1[C@@H]1NCCc2ccc(Cl)cc21`, the GI50 was 0.104 µM and the TGI turned out to be 14.8 µM.
The matching figures for `COc1cc2c(cc1OC)C(C(CCCCCC(CCC(C)C)C1NCCc3cc(OC)c(OC)cc31)CCC(C)C)NCC2` (configuration not stated): 0.588 µM and 1.25 µM.
Taken in the same sequence, the figures for `COC(=O)c1c[nH]c2cc(OC(C)C)c(OC(C)C)cc2c1=O` were greater than 100 µM and greater than 100 µM.
Taken in the same sequence, the figures for `Cn1ncc(C#N)c1-c1ccc2c(c1)CN([C@H](CN)Cc1cccc(F)c1)C2=O` were 0.105 µM and 2.97 µM.
On to `COc1cc(C(=O)/C=C/c2cc(-c3ccc4c(c3)OCO4)n[nH]2)cc(OC)c1OC`, for which the GI50 was 1.4 µM and the TGI came to 3.5 µM.
Taken in the same sequence, the figures for `CN1CCN(CCCNC(=O)c2c3c(n4ccccc24)C(=O)c2ncccc2C3=O)CC1` were 0.637 µM and 1.86 µM.
The matching figures for `C=CCn1c2ccccc2c2c3c(c4c5ccccc5n(CC=C)c4c21)C(=O)N(O)C3=O`: 3.88 µM and 41.9 µM.
Taken in the same sequence, the figures for `CC1=CC(=O)N(c2cccc3c(N4C(=O)C=C(C)C4=O)cccc23)C1=O` were 2.09 µM and 5.51 µM.
For the compound `Cn1c(CCCC(=O)O)nc2cc(N(CCCl)CCCl)ccc21`, the GI50 is 17.1 µM and the TGI is greater than 100 µM.
The matching figures for `Cc1ccc(/C=N/NC(=O)c2ccccc2Oc2ccccc2)o1`: 19.6 µM and 65.7 µM.
Regarding `COc1ccc(OC)c(Nc2nc3nonc3nc2Nc2cccc(Br)c2)c1`, the GI50 was 0.343 µM and the TGI was 3.88 µM.
The matching figures for `O=C(/C=C/c1ccccc1)c1cccc2ccccc12`: 2 µM and 5.64 µM.
Taken in the same sequence, the figures for `Cc1ccc(N)cc1[As]=[As]c1cc(N)ccc1C` (configuration not stated) were 0.243 µM and 0.944 µM.
As for `Cc1nc2sc(C(=O)Nc3cccc(Br)c3C)c(N)c2cc1C(O)c1ccccc1` (configuration not stated), the GI50 is 0.0398 µM and the TGI was determined as 26 µM.
Regarding `COc1cccc2c1C(=O)c1c(O)c3c(c(O)c1C2=O)C[C@@](O)(/C(CO)=N/NC(=O)CCCCCN1C(=O)C=CC1=O)C[C@@H]3O[C@H]1C[C@H](N)[C@H](O)[C@H](C)O1`, the GI50 was 0.438 µM and the TGI came out at 2.75 µM.
Regarding `C=C1C(=O)O[C@H]2[C@H]1CC/C(COC(=O)c1cccnc1N)=C\CC[C@@]1(C)O[C@@H]21`, the GI50 is 0.958 µM and the TGI is 4.18 µM.
The matching figures for `Cc1ccc(C[As+](c2ccccc2)(c2ccccc2)c2ccccc2)cc1`: 0.185 µM and 1.08 µM.

The values are drawn from PubChem BioAssay (NCI).
